Measurements taken from patent US20230338328A1, “KOJIC ACID DERIVATIVE AS SELECTIVE INHIBITOR OF MITOSIS IN COLORECTAL AND GLIOBLASTOMA CANCER CELLS” (UNIVERSITA' DEGLI STUDI DI CAGLIARI, priority 2020, published 2023).
“Also recorded” adds a separate entry of the source.

Assays:
[1] = test system: T98G (human glioblastoma) cells; assay: Mitosis block / morphology of treated cell cultures, T98G; assay type: cell-based; details: for antiproliferative activity (through the inhibition of mitosis): T98G tumor cells; for morphological changes characteristic of block in mitosis (M phase arrest): T98G, 24 hours of culture, FIG. 1: L1 0.74 mM, Colcemid 5.41 mM
From the text: (§1) The commercial embryonic cell line of the human kidney 293T (Banca Biologica and Cell Factory—IRCCS AOU San Martino—IST Genova, catalog code ICLC HTL03003), that of murine macrophages J774 and RAW (ICLC ATL98011 and ATL02001), that of Glioblastoma del human brain T98G (ATCC® CRL-1690™) and that of human epithelial adenocarcinoma Caco-2 (ICL HTL97023), were provided by the National Institute for Research on Cancer c/o CBA (ICLC, Genoa). A minimal essential cell culture medium, MEM (EBSS), with 10% fetal bovine serum (FBS), 100 units per mL penicillin, […] streptomycin, 2 mM glutamine and 1% not essential amino acids was used. To reach the experimental conditions, the confluent cells were isolated using trypsin/EDTA. The cells of the different cell lines (2-3×10^4 cells per cm^2) were seeded in 35 mm cell discs and then incubated at 37° C. in 5% CO2. After 24 hours of growth in complete culture medium, the cells were cultured according to the different experimental conditions foreseen by the project.

[2] = test system: Caco2 (colon adenocarcinoma) cells; assay: Mitosis block / morphology of treated cell cultures, CaCo2; details: for antiproliferative activity (through the inhibition of mitosis): CaCo2 tumor cells; for morphological changes characteristic of block in mitosis (M phase arrest): CaCo2, 24 hours of culture, FIG. 1: L1 0.74 mM, Colcemid 5.41 mM
From the text: as §1

[3] = test system: Caco-2 human epithelial adenocarcinoma cells
Description: Treated and untreated control samples of Caco-2 human epithelial adenocarcinoma cells were fixed for 2 hours in 1% paraformaldehyde (para) and 1.25% glutaraldehyde solution in 0.1 M, pH 7.4 sodium cacodylate buffer. After rinsing in the same buffer, the samples were post-fixed in 1% osmium tetroxide for 1 hour and stained in 0.25% uranyl acetate overnight at 4° C.
The cell cultures were dehydrated in increasing scale of ethanol and xylene, subsequently, to proceed with the embedding in Embed 812 resin, the samples were transferred in inclusion flat molds in an oven at 60° C. for the 24 hours necessary for the polymerization of the resin. From the resulting blocks, 1 μm thick sections were obtained and then stained with toluidine blue for preliminary analysis by light microscopy. Finally, thin sections of 60-90 nm (ultramicrotome 8800 LKB), contrasted with […] and bismuth subnitrate, were observed and photographed with a transmission electron microscope (model JEOL 1400 plus, Tokyo, Japan) operating at 80 kV.

[4] = test system: embryonic kidney cells (293T cells); assay: Mitosis block / morphology of treated cell cultures, 293T; assay type: cell-based, human; details: for morphological changes characteristic of block in mitosis (M phase arrest): 293T normal cells, FIG. 1: L1 0.74 mM, Colcemid 5.41 mM
From the text: as §1

[5] = test system: BAX, BCL2, OH-1, PRDX gene expression in CaCo2 cells; details: 24 hours, L1 0.74 mM (FIG. 6)
Description: (§2) Coding for a protein that may play a role in the control of cell proliferation and in tumor development and progression.
(§3) The cells, after treatment, were immediately frozen and stored at −80° C. until RNA extraction. The RNA was extracted with the NorDiag ARROW RNA Kit using the company's automated tool. Actin was used as a reference gene. Real-time reverse transcriptase PCR was performed using the Roche Light Cycler System and the SYBR Green I Amplification Kit (Roche Diagnostics). The primers used for the beta actin control gene are as follows: b-actF=5′-[…]-3′, b-actR=5′-[…]-3′, e (Gen-Bank n. NM_001101). While the following oligo nucleotides were used for the genes under consideration:
(§4) The final reaction volume of 20 μl contained: a final concentration of 3 mM MgCl2, […] of each primer and 2 μl of RNA extract. The real time reaction program includes: an initial reverse transcription at 55° C. for 10 minutes, a denaturation cycle at 95° C. for 30 seconds followed by 35 cycles at 95° for 5 seconds, 53° C. for 10 seconds and 72° C. for 12 seconds, the fluorescence reading was performed in the 72° C. phase
(§5) The relative gene expression was analyzed using the 2-AACT method [KJ Livak and TD Schmittgen, Analysis of relative gene expression data by Quantitative real-time PCR and 2-AACT method, methods, 2001, 25, 402-408]. Three distinct experimental replicates were performed for each analysis and the quantitative data were expressed as mean. The experiment was repeated if the dispersion of the values of the threshold cycles, compared to the mean, was too high. A standard deviation for each replicate equal to ±1 cut-off cycle was accepted.

[6] = test system: BAX, BCL2, OH-1, PRDX gene expression in 293T cells; details: 24 hours, L1 0.74 mM (FIG. 6)
Description: as §2, §3, §4, §5

[7] = test system: macrophages (J774 cells)
From the text: as §1

[8] = test system: RAW macrophages; assay: Mitosis block / morphology of treated cell cultures, RAW; assay type: cell-based, murine; details: RAW normal cells; FIG. 1: L1 0.74 mM, Colcemid 5.41 mM
From the text: as §1

[9] = test system: CaCo2 cells
Description: A possible cytotoxic effect (ID50) of the L1 molecule was evaluated in CaCo2 cells by viable staining with trypan blue under different experimental conditions. Cell number (FIG. 3) and viability (FIG. 4) were assessed using the LunaFL cell counter (www.logosbio.com) or by direct observation under the light microscope. Briefly, the cell samples mixed and diluted 1:1 with a 0.2% Trypan Blue solution were counted, after 1-3 minutes, in the counting chamber slide present in the analyzer of the Luna automatic system. […] To obtain an accurate measurement of cell viability, the cell count was repeated at least three times in at least three experiments under the same experimental conditions. The observation under the optical microscope (FIG. 5) was made by adding the Trypan Blue solution to the cells to be observed for a few minutes. The percentage of live cells (trypan blue negative) compared to dead ones (trypan blue positive) in each experimental culture condition was then calculated.

[10] = Caco2, treatment continued for up to 72 hours

O=c1cc(CNCCCCNCc2cc(=O)c(O)co2)occ1O [L3, 2,2′-[butane-1,4-diylbis (iminomethanediyl)]bis(5-hydroxy-4H-pyran-4-one)]
antiproliferative activity (through the inhibition of mitosis) [1]: not those (L2, L3 and L4) showed antiproliferative activity
antiproliferative activity (through the inhibition of mitosis) [2]: not those (L2, L3 and L4) showed antiproliferative activity

O=c1cc(CNCCCNCc2cc(=O)c(O)co2)occ1O [L2, 2,2′-[propane-1,3-diylbis (iminomethanediyl)]bis(5-hydroxy-4H-pyran-4-one)]
antiproliferative activity (through the inhibition of mitosis) [1]: not those (L2, L3 and L4) showed antiproliferative activity
antiproliferative activity (through the inhibition of mitosis) [2]: not those (L2, L3 and L4) showed antiproliferative activity

O=c1cc(CNCCNCc2cc(=O)c(O)co2)occ1O [L1, 2,2′-ethane-1,2-diylbis (iminomethanediyl)This(5-hydroxy-4H-pyran-4-one)]
effect on cell division by ultrastructural analysis (SEM and TEM) ([3]; Caco2, L1 0.74 mM (FIG. 2)): acts specifically on the cell division (mitosis) process
nuclear fragmentation (microscopy) ([3]; Caco-2, L1 0.74 mM (FIG. 2A)): occasionally, cells showing fragmentation of their nuclei have been observed
cellular architecture during the interphase (TEM) ([3]; Caco-2, L1 0.74 mM (FIG. 2B)): does not appear to affect the cellular architecture of most cells
morphological changes characteristic of block in mitosis (M phase arrest) [4]: apparently normal
effect in non-tumor cell line ([4]; embryonic kidney cells (293 cells)): no effect
BAX gene expression (mRNA) [5]: significantly reduces the expression
BCL2 gene expression (mRNA) [5]: significantly reduces the expression
OH-1 gene expression (mRNA) [5]: significantly reduces the expression
PRDX gene expression (mRNA) [5]: significantly reduces the expression
BAX gene expression (mRNA) [6]: increased expression
BCL2 gene expression (mRNA) [6]: increased expression
OH-1 gene expression (mRNA) [6]: increased expression
PRDX gene expression (mRNA) [6]: completely inhibiting the expression
effect in non-tumor cell line [7]: no effect
morphological changes characteristic of block in mitosis (M phase arrest) [8]: apparently normal
antiproliferative activity (through the inhibition of mitosis) [1]: showed antiproliferative activity
morphological changes characteristic of block in mitosis (M phase arrest) [1]: showed morphological changes characteristic of mitotic-blocked cells; also recorded: arrest in M phase similar to that induced by Colcemid
viability (Trypan Blue, LunaFL) ([9]; L1 0.74 mM (FIG. 4)): comparable to that of the respective control
number of cells after repeated treatments ([9]; repeated treatments with L1): further reduction in the number of cells
number of cells compared to those not treated (LunaFL count) ([9]; treated for 24 hours, L1 0.74 mM (FIG. 3)): clear reduction in the number of CaCo2 cells
morphological changes characteristic of block in mitosis (M phase arrest) [2]: showed morphological changes characteristic of mitotic-blocked cells; also recorded: arrest in M phase similar to that induced by Colcemid
antiproliferative activity (through the inhibition of mitosis) [2]: showed antiproliferative activity
concentration at which all the cells have a modified morphology ([2]; Caco2): 2.22 mM
treatment time after which half of the Caco2 cells were blocked in mitosis ([2]; Caco2): 4.5 h
treatment time after which the block of all treated cells was achieved ([2]; Caco2): 24 h
minimum concentration able to induce evident morphological changes ([2]; Caco2, after 24 hours of treatment): 0.069 mM
reduction in the number of cells versus control sample (on average) ([2]; Caco2, control = same cell line cultured without L1): 4 times lower
cell fate on continued treatment [2, 10]: begin to die from apoptosis
reversibility of mitosis inhibition [2, 10]: irreversible
reversibility of mitosis inhibition ([2]; Caco2, treatment stopped after 24 hours, medium replaced): reversible

CN[C@H]1CCc2cc(OC)c(OC)c(OC)c2-c2ccc(OC)c(=O)cc21 [Colcemid, desacetylmethylcolchicine, reference compound]
morphological changes characteristic of block in mitosis (M phase arrest) [4]: all cell lines respond
morphological changes characteristic of block in mitosis (M phase arrest) [8]: all cell lines respond
morphological changes characteristic of block in mitosis (M phase arrest) [1]: all cell lines respond
morphological changes characteristic of block in mitosis (M phase arrest) ([1]; listed as colcemide): all cell lines studied showed the morphological changes characteristic of blocked cells in mitosis
morphological changes characteristic of block in mitosis (M phase arrest) [2]: all cell lines respond
morphological changes characteristic of block in mitosis (M phase arrest) ([2]; listed as colcemide): all cell lines studied showed the morphological changes characteristic of blocked cells in mitosis

O=c1cc(CNCCN(CCNCc2cc(=O)c(O)co2)CCNCc2cc(=O)c(O)co2)occ1O [L4, 6,6′,6″-(((nitrilotris(ethane-2,1-diyl))tris(azanediyl))tris(methylene))tri s(3-hydroxy-4H-pyran-4-one)]
antiproliferative activity (through the inhibition of mitosis) [1]: not those (L2, L3 and L4) showed antiproliferative activity
antiproliferative activity (through the inhibition of mitosis) [2]: not those (L2, L3 and L4) showed antiproliferative activity
